Data taken from PubChem BioAssay (NCI).
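Assay format: 96-well plates, 48-hour exposure. Here, GI50 denotes the concentration required for 50% inhibition of growth. TGI is the concentration that stops growth completely.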

Columns and labels:
Assay in all cases: growth of human tumour cells (NCI), 48 h
[1] = system: NCI-H23 lung
[2] = system: OVCAR-3 ovarian
[3] = system: SW-620 colon
[4] = system: HCT-15 colon
[5] = system: UACC-62 melanoma
[6] = system: HT29 colon
[7] = system: SK-MEL-5 melanoma
[8] = system: RXF 393 renal
[9] = system: MALME-3M melanoma
[10] = system: MDA-MB-435

`Cc1cccc2nc(-c3ccccc3)cc(=O)n12` gave a TGI [1] greater than 100 µM, a TGI [2] greater than 100 µM and a TGI [3] greater than 100 µM. The TGI [4] was greater than 100 µM, the TGI [5] was greater than 100 µM and the TGI [6] was greater than 100 µM. The TGI [7] was greater than 100 µM, the TGI [8] was greater than 100 µM and the TGI [9] was greater than 100 µM.

`Cc1ccc(N(C(=O)CC(=O)NN)C(=O)c2ccccc2Cl)cc1` showed a TGI [1] greater than 100 µM, a TGI [2] greater than 100 µM and a TGI [3] greater than 100 µM. The TGI [4] was greater than 100 µM, the TGI [5] was greater than 100 µM and the TGI [6] was greater than 100 µM. For the same compound, the TGI [8] was greater than 100 µM and the TGI [9] was greater than 100 µM.

Compound `CC12CCCC(O)C1CCC1=CC3(CCC12)SCCS3` (stereo not given) has a TGI [1] greater than 10 µM, a TGI [2] greater than 10 µM and a TGI [10] greater than 10 µM. It also gave a TGI [3] greater than 10 µM, a TGI [4] greater than 10 µM and a TGI [5] greater than 10 µM. For the same compound, the TGI [6] was greater than 10 µM, the TGI [7] was greater than 10 µM and the TGI [9] was greater than 10 µM.

`CCC[CH2][Sn]1([CH2]CCC)[O]C(=O)C(C(C)C)N=Cc2ccccc2[O]1` (stereo not given) was tested, and the GI50 [1] was 0.158 µM, the TGI [1] was 0.534 µM and the GI50 [2] was 0.73 µM. For the same compound, the TGI [2] was 1.99 µM, the GI50 [3] was 0.158 µM and the TGI [3] was 0.318 µM. For the same compound, the GI50 [4] was 345 nM, the TGI [4] was 1.34 µM and the GI50 [5] was 0.244 µM. The TGI [5] was 0.693 µM, the GI50 [6] was 0.907 µM and the TGI [6] was 2.21 µM. For the same compound, the GI50 [7] was 1070 nM, the TGI [7] was greater than 100 µM and the GI50 [8] was 72.2 nM. The TGI [8] was 0.219 µM, the GI50 [9] was 0.188 µM and the TGI [9] was 0.456 µM.

`N.N.N.N.N.O=C([O-])c1nn[n-]n1.[Cl-].[Co+3]` was tested, and the GI50 [1] was greater than 100 µM, the TGI [1] was greater than 100 µM and the GI50 [2] was greater than 100 µM. It also gave a TGI [2] greater than 100 µM, a GI50 [3] greater than 100 µM and a TGI [3] greater than 100 µM. For the same compound, the GI50 [4] was greater than 100000 nM, the TGI [4] was greater than 100 µM and the GI50 [5] was greater than 100 µM. The TGI [5] was greater than 100 µM, the GI50 [6] was greater than 100 µM and the TGI [6] was greater than 100 µM. It also gave a GI50 [7] greater than 100000 nM, a TGI [7] greater than 100 µM and a GI50 [8] greater than 100000 nM. It also gave a TGI [8] greater than 100 µM, a GI50 [9] greater than 100 µM and a TGI [9] greater than 100 µM.

`Nc1ccc(/C=C/c2ccnc3ccccc23)cc1` gave a TGI [1] of 50.1 µM, a TGI [2] of 48.7 µM and a TGI [3] of 97.7 µM. The TGI [4] was greater than 100 µM, the TGI [5] was 56.9 µM and the TGI [6] was 65.1 µM. It also gave a TGI [7] of 29.6 µM and a TGI [9] of 97.3 µM.

Work on `CC(C)=CCC/C(=C/CC/C(C)=C/CCc1ccoc1)C(=O)O` yielded a TGI [1] greater than 100 µM, a TGI [2] greater than 100 µM and a TGI [3] greater than 100 µM. For the same compound, the TGI [4] was greater than 100 µM, the TGI [5] was greater than 100 µM and the TGI [6] was greater than 100 µM. For the same compound, the TGI [7] was greater than 100 µM, the TGI [8] was greater than 100 µM and the TGI [9] was greater than 100 µM.

In the case of `CC[O-].CC[O-].O=C1c2ccccc2C(=O)c2c(O)ccc([O-])c21.O=C1c2ccccc2C(=O)c2c(O)ccc([O-])c21.[Ti+4]`, the TGI [1] is reported as greater than 100 µM, the TGI [2] is reported as greater than 100 µM and the TGI [3] is reported as greater than 100 µM. The TGI [4] was greater than 100 µM, the TGI [5] was greater than 100 µM and the TGI [6] was greater than 100 µM. The TGI [7] was greater than 100 µM, the TGI [8] was 90.4 µM and the TGI [9] was greater than 100 µM.

Compound `COc1c2c(cc3nc4ccccc4nc13)CCC(C(C)(C)O)C2` (stereo not given) has a TGI [1] greater than 100 µM, a TGI [2] greater than 100 µM and a TGI [3] greater than 100 µM. For the same compound, the TGI [4] was greater than 100 µM, the TGI [5] was greater than 100 µM and the TGI [6] was greater than 100 µM. It also gave a TGI [7] greater than 100 µM, a TGI [8] greater than 100 µM and a TGI [9] greater than 100 µM.

`NC1=NN(c2ccccc2)C(=O)C1C(=O)CCC(=O)Nc1cccc(C(F)(F)F)c1` (stereo not given) was tested, and the TGI [1] was greater than 100 µM, the TGI [2] was greater than 100 µM and the TGI [3] was greater than 100 µM. For the same compound, the TGI [4] was greater than 100 µM, the TGI [5] was greater than 100 µM and the TGI [6] was greater than 100 µM. For the same compound, the TGI [7] was greater than 100 µM, the TGI [8] was greater than 100 µM and the TGI [9] was greater than 100 µM.

Work on `Cn1cc(C(=O)c2ccccc2)ccc1=O` yielded a TGI [1] greater than 100 µM, a TGI [2] greater than 100 µM and a TGI [3] greater than 100 µM. The TGI [4] was greater than 100 µM, the TGI [5] was greater than 100 µM and the TGI [6] was greater than 100 µM. The TGI [7] was greater than 100 µM, the TGI [8] was greater than 100 µM and the TGI [9] was greater than 100 µM.

`O=C(O)CN(c1ccccc1)S(=O)(=O)c1ccccc1[N+](=O)[O-]` gave a TGI [1] greater than 100 µM, a TGI [2] greater than 100 µM and a TGI [3] greater than 100 µM. It also gave a TGI [4] greater than 100 µM, a TGI [5] greater than 100 µM and a TGI [6] greater than 100 µM. For the same compound, the TGI [7] was greater than 100 µM, the TGI [8] was greater than 100 µM and the TGI [9] was greater than 100 µM.

Compound `Cc1noc(C)c1CCCOC1COc2ccccc2OCCOCCOc2ccccc2OC1` has a TGI [1] greater than 100 µM, a TGI [2] greater than 100 µM and a TGI [3] greater than 100 µM. The TGI [4] was greater than 100 µM, the TGI [5] was greater than 100 µM and the TGI [6] was greater than 100 µM. The TGI [7] was greater than 100 µM, the TGI [8] was greater than 100 µM and the TGI [9] was greater than 100 µM.

`CCCCCCCCCCCCCC1CCC(CC)N1` (stereo not given) gave a TGI [1] of 32.9 µM, a TGI [2] of 30.2 µM and a TGI [3] of 29.6 µM. For the same compound, the TGI [4] was 16.5 µM, the TGI [5] was 17.1 µM and the TGI [6] was 15.1 µM. It also gave a TGI [7] of 31.8 µM, a TGI [8] of 33 µM and a TGI [9] of 33.8 µM.

`CC1=C(C)CC2(CCCCC2=O)S(=O)C1` (stereo not given) gave a TGI [1] greater than 100 µM, a TGI [2] greater than 100 µM and a TGI [3] greater than 100 µM. For the same compound, the TGI [4] was greater than 100 µM, the TGI [5] was greater than 100 µM and the TGI [6] was greater than 100 µM. For the same compound, the TGI [7] was greater than 100 µM, the TGI [8] was greater than 100 µM and the TGI [9] was greater than 100 µM.

Work on `O=C(c1cccc(O)c1O)c1cn(Cc2ccc(F)cc2)c2cccc(O)c12` yielded a GI50 [1] of 4.12 µM, a TGI [1] of 19.8 µM and a GI50 [2] of 3.27 µM. The TGI [2] was 18.1 µM, the GI50 [10] was 5.23 µM and the TGI [10] was 36.3 µM. For the same compound, the GI50 [3] was 5.26 µM, the TGI [3] was 19.9 µM and the GI50 [4] was 1160 nM. The TGI [4] was 14.8 µM, the GI50 [5] was 4.27 µM and the TGI [5] was 14.6 µM. For the same compound, the GI50 [6] was 7.43 µM, the TGI [6] was 23.4 µM and the GI50 [7] was 1730 nM. For the same compound, the TGI [7] was 4.97 µM, the GI50 [9] was 4.83 µM and the TGI [9] was 22 µM.

`Cc1cc(C)nc(NS(=O)(=O)c2ccc(Nc3c4ccccc4nc4c(C(=O)Nc5ccc(S(=O)(=O)Nc6cc(C)on6)cc5)cccc34)cc2)n1` showed a TGI [1] of 51.1 µM, a TGI [2] of 33.3 µM and a TGI [3] of 51.4 µM. For the same compound, the TGI [4] was greater than 100 µM, the TGI [5] was 34 µM and the TGI [6] was 35.5 µM. For the same compound, the TGI [7] was 36.3 µM, the TGI [8] was 38.2 µM and the TGI [9] was 49 µM.

`CCOC1=NC(=O)CC(c2ccccc2)S1` (stereo not given) was tested, and the TGI [2] was greater than 100 µM, the TGI [3] was greater than 100 µM and the TGI [4] was greater than 100 µM. The TGI [5] was greater than 100 µM, the TGI [6] was greater than 100 µM and the TGI [7] was greater than 100 µM. The TGI [8] was greater than 100 µM and the TGI [9] was greater than 100 µM.

With `COC(=O)c1cc(Br)c(Br)n1C` the TGI [1] was greater than 100 µM, the TGI [2] was greater than 100 µM and the TGI [3] was greater than 100 µM. For the same compound, the TGI [5] was greater than 100 µM, the TGI [6] was greater than 100 µM and the TGI [7] was greater than 100 µM. For the same compound, the TGI [8] was greater than 100 µM and the TGI [9] was greater than 100 µM.

Work on `N#Cc1nc(C2OC(COC(=O)c3ccccc3)C(OC(=O)c3ccccc3)C2OC(=O)c2ccccc2)oc1N` (stereo not given) yielded a TGI [1] greater than 100 µM, a TGI [2] greater than 100 µM and a TGI [3] greater than 100 µM. It also gave a TGI [4] greater than 100 µM, a TGI [5] greater than 100 µM and a TGI [6] greater than 100 µM. The TGI [7] was 40 µM, the TGI [8] was greater than 100 µM and the TGI [9] was greater than 100 µM.

For `NC(CC(=O)OCc1ccccc1)C(=O)OCc1ccccc1` (stereo not given), the TGI [1] was greater than 100 µM, the TGI [2] was greater than 100 µM and the TGI [10] was greater than 100 µM. For the same compound, the TGI [3] was greater than 100 µM, the TGI [4] was greater than 100 µM and the TGI [5] was greater than 100 µM. For the same compound, the TGI [7] was greater than 100 µM.
